What was measured:
[1] = Electrochemical modulation of pH at ITO working electrode monitored by GFP fluorescence intensity; assay type: physicochemical
Description: After current was turned off, the pH recovered to neutral value within 50 seconds.
Electrode material used: The electrode material was indium tin oxide. The fluorescent protein used is GFP immobilized on a glass substrate which includes an array of electrodes. The GFP is applied as spots, each spot covers an area that overlaps with one electrode and an area that is not overlapping with an electrode.
The pH change at the surface of ITO working electrode is generated via current-driven oxidation of a redox active molecule, 2-methyl-1,4-dihydroquinone, in diluted phosphate buffer (pH=7.4) containing 0.1M Na2SO4. […] FIG. 10 is used as calibration curve to assess the pH values.

[2] = Electro-oxidation of ascorbic acid at indium tin oxide electrode (cyclic voltammetry); assay type: physicochemical; conditions: Indium tin oxide vs Ag/AgCl reference electrode
Description: FIG. 7B: Cyclic voltammetric study of the oxidation of Ascorbic acid test in ITO electrodes.
(§1) Electrode material used: The electrode material was indium tin oxide. This is a semiconducting electrode surface with very large potential window in an aqueous solution.
Oxidation of ascorbic acid at the electrode surfaces produced H^+ ions and changed the electrode surface pH to a more acidic state: AH2→A+2H^++2e^−, where AH2 is ascorbic acid ([…]) (as shown in FIG. 5). The electrode potential at which it oxidizes was less than 0.5V for Indium tin oxide material vs Ag/AgCl reference electrode (as shown in FIG. 7). This potential was less than the voltages needed for the oxygen evolution reaction in aqueous solution. The ascorbic acid also acted as a sacrificial species to prevent electrochemical degradation of the surface chemistry.

[3] = biological target: Green Fluorescent Protein (GFP) (Aequorea victoria, UniProt P42212); assay: Fluorescence intensity of GFP after incubation with benzoquinones (protein stability); assay type: biochemical; conditions: 0.5 mM benzoquinone, phosphate buffered saline, 30 min
Description: Para-benzoquinones and ortho-benzoquinones (compounds 2, 4, 6, and 9 in FIG. 31) are susceptible to nucleophilic attack at the double bond of the ring (positions 2, 3, 5 and 6 in structure 2 of FIG. 31, positions 3, 4, 5 and 6 in structure 4 of FIG. 31, and positions 2 and 3 in structure 6 of FIG. 31). Introducing substituents at some or all of those positions can mitigate the problem of nucleophilic attack. For example, 1,4-benzoquinone (structure 2 in FIG. 31, where R1, R2, R3 and R4 are H) undergoes Michael addition reaction with amino groups of proteins (Loomis et al., Phytochemistry, 5, 423, (1966) and U.S. Pat. No. 6,753,312 B2). […] Fluorescence intensity of Green Fluorescent Protein (GFP) was measured after incubation with three different benzoquinones in phosphate buffered saline for 30 min (concentration of benzoquinones was 0.5 mM). The difference in fluorescence intensity indicates the varied effect that the different substitutions in benzoquinones have on the stability of GFP. Fluorescence intensity of GFP is indicative of its structural integrity. Losses in fluorescence intensity usually indicate loss of its tertiary structure (protein denaturation) (Yin D. X., Zhu L., Schimke R. T. Anal. Biochem. 1996, 235:195-201).

[4] = Electro-reduction of benzoquinone into hydroquinone to produce OH- ions; assay type: physicochemical
Description: as §1
Reduction of benzoquinone (C6H4O2) into Hydroquinone (C6H6O2) can produce OH^− ions at −0.1V: BQ+2e^−+2H2O→HQ+2OH^− This reduction reaction increased the pH at the electrode interface.

For `Cc1cc(O)ccc1O` [2-methyl-1,4-dihydroquinone], the “solution pH after current-driven oxidation” value ([1]; 50 microamps for 30 second, diluted phosphate buffer pH 7.4, 0.1M Na2SO4, ITO working electrode) was 5.5 and the “time for pH to recover to neutral value after current was turned off” value ([1]; diluted phosphate buffer pH 7.4, 0.1M Na2SO4) was at most 50 seconds.
With `O=C1O[C@H]([C@@H](O)CO)C(O)=C1O` [ascorbic acid] the “electrode potential at which it oxidizes” value [2] was “less than 0.5 V”.
With `O=C1C=CC(=O)C=C1` [unsubstituted benzoquinone, 1,4-benzoquinone] the “loss in GFP fluorescence intensity after incubation” value [3] was 25% and the “potential of reduction producing OH- ions” value [4] was −0.1 V.
